Test systems include HCT-15 colon; RPMI-8226 leukemia; KM12 colon; OVCAR-8 ovarian; SW-620 colon; NCI-H23 lung; DU-145 prostate; NCI/ADR-RES ovarian; MALME-3M melanoma; T-47D breast.
Common to all, as to experiment: NCI anticancer screen, dose series, 48 h

Structures are written as SMILES.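 These data come from cells grown in 96-well plates and exposed to compound for 48 hours at five concentrations. At the GI50, growth is halved. TGI denotes the concentration required for complete inhibition of growth.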

Regarding `CC(=O)[O][Hg][c]1c(C)c(C)cc(C)c1C`, the GI50 in the test with HCT-15 colon was 1.49 µM; with RPMI-8226 leukemia, 1.6 µM; with KM12 colon it was 2.22 µM; with OVCAR-8 ovarian, 1.77 µM; in the test with SW-620 colon, 0.732 µM; with NCI-H23 lung, 1.03 µM. For the same compound, the GI50 with DU-145 prostate was 1.86 µM; in the test on NCI/ADR-RES ovarian, 2.96 µM; in the test with MALME-3M melanoma, 1.33 µM; in the test on T-47D breast, 1.68 µM. In addition, the TGI was 3.88 µM with HCT-15 colon; 6.11 µM with RPMI-8226 leukemia; 6.26 µM in the test on KM12 colon; 3.23 µM in the test with OVCAR-8 ovarian; 2.31 µM in the test on SW-620 colon; 3.32 µM with NCI-H23 lung. Moreover, the TGI in the test on DU-145 prostate came to 4.62 µM; in the test with NCI/ADR-RES ovarian it was 9.14 µM; with MALME-3M melanoma, 2.75 µM; in the test with T-47D breast, 4.79 µM.
Regarding `CN1CSC(=S)N(Cc2ccccc2)C1`, the GI50 with HCT-15 colon was 4.74 µM; in the test on RPMI-8226 leukemia, 5.54 µM; with KM12 colon, 1.87 µM; in the test with OVCAR-8 ovarian, 25.2 µM; in the test on SW-620 colon it was 3.16 µM; in the test with NCI-H23 lung, 14.1 µM. In addition, the GI50 in the test with DU-145 prostate is 2.05 µM; in the test on NCI/ADR-RES ovarian it was 28.2 µM; in the test with MALME-3M melanoma it was 15.4 µM; in the test with T-47D breast it was 4.78 µM. Further, the TGI is 22 µM in the test on HCT-15 colon; 79.7 µM with RPMI-8226 leukemia; 4.19 µM in the test on KM12 colon; > 100 µM with OVCAR-8 ovarian; 12.4 µM with SW-620 colon; 36.6 µM with NCI-H23 lung. Also, the TGI in the test on DU-145 prostate is 6.21 µM; with NCI/ADR-RES ovarian it was > 100 µM; in the test on MALME-3M melanoma it was 37.4 µM; in the test on T-47D breast, 23.4 µM.
Consider `COc1cc2nc3cc([N+](=O)[O-])ccc3c(NCCNCC(C)(C)O)c2cc1OC`, for which the GI50 with HCT-15 colon is 3.4 µM; with RPMI-8226 leukemia, 1.49 µM; in the test on KM12 colon, 0.698 µM; in the test on OVCAR-8 ovarian it was 0.769 µM; in the test with SW-620 colon, 0.54 µM; in the test on NCI-H23 lung it was 0.629 µM. Moreover, the GI50 with DU-145 prostate is 0.44 µM; in the test with NCI/ADR-RES ovarian, 5.68 µM; with MALME-3M melanoma it was 0.622 µM; in the test on T-47D breast it was 0.437 µM. The TGI in the test with HCT-15 colon turned out to be 12.8 µM; in the test on RPMI-8226 leukemia, 5.8 µM; in the test on KM12 colon it was 2.97 µM; with OVCAR-8 ovarian, 4.48 µM; in the test on SW-620 colon, 4.07 µM; in the test on NCI-H23 lung, 3.43 µM. Moreover, the TGI is 2.34 µM in the test on DU-145 prostate, 20.5 µM in the test on NCI/ADR-RES ovarian, 1.97 µM with MALME-3M melanoma and 2.91 µM with T-47D breast.
For `c1cc2c(cn1)Nc1ccncc1S2`, the GI50 in the test with HCT-15 colon is 37.4 µM; with RPMI-8226 leukemia, 36.3 µM; in the test with KM12 colon it was 32.3 µM; in the test on OVCAR-8 ovarian, 35.7 µM; in the test on SW-620 colon, 35.4 µM; in the test on NCI-H23 lung, 43.4 µM. In addition, the GI50 was 44.5 µM with DU-145 prostate, 37.1 µM in the test with NCI/ADR-RES ovarian, > 100 µM in the test with MALME-3M melanoma and 34.8 µM with T-47D breast. For the same compound, the TGI in the test on HCT-15 colon, in the test with RPMI-8226 leukemia, in the test on KM12 colon, in the test on OVCAR-8 ovarian, in the test with SW-620 colon and in the test on NCI-H23 lung was > 100 µM each time. For the same compound, the TGI in the test on DU-145 prostate, in the test on NCI/ADR-RES ovarian, in the test with MALME-3M melanoma and in the test on T-47D breast was > 100 µM in each case.
Take `O=c1[nH]cnc2c1nnn2CCCCCCCCCCCCn1nnc2c(=O)[nH]cnc21`: the TGI is > 100 µM in the test on HCT-15 colon; > 100 µM in the test with RPMI-8226 leukemia; > 100 µM with KM12 colon; > 86.8 µM in the test with OVCAR-8 ovarian; > 100 µM in the test on SW-620 colon; 39.2 µM in the test on NCI-H23 lung. The TGI in the test on DU-145 prostate, in the test on NCI/ADR-RES ovarian, in the test on MALME-3M melanoma and in the test with T-47D breast was > 100 µM throughout.
As for `COc1ccc(N(C)c2nc(N)nc3sc4c(c23)CCCC4)cc1`, the GI50 with HCT-15 colon was < 0.01 µM; in the test with RPMI-8226 leukemia, < 0.01 µM; with KM12 colon it was < 0.01 µM; with OVCAR-8 ovarian, < 0.0171 µM; in the test with SW-620 colon, < 0.01 µM; in the test with NCI-H23 lung, < 0.01 µM. The GI50 was < 0.0166 µM with DU-145 prostate, < 0.01 µM in the test with NCI/ADR-RES ovarian, < 0.0125 µM with MALME-3M melanoma and < 0.01 µM in the test on T-47D breast. The TGI in the test with HCT-15 colon worked out at 13 µM; in the test on RPMI-8226 leukemia, 15.6 µM; in the test on KM12 colon, 12 µM; in the test on OVCAR-8 ovarian, 14.9 µM; with SW-620 colon, 16.4 µM; in the test on NCI-H23 lung it was 20.8 µM. Moreover, the TGI with DU-145 prostate stood at 11.2 µM; in the test on NCI/ADR-RES ovarian, 14.4 µM; with MALME-3M melanoma, 18.9 µM; in the test with T-47D breast, 30.8 µM.
Consider `CCOC(=O)c1cnc2c(C)cccc2c1Nc1ccc(C(C)=O)cc1`, for which the GI50 is 20.7 µM in the test with HCT-15 colon; 30.9 µM in the test on RPMI-8226 leukemia; 51.2 µM with KM12 colon; 33.8 µM in the test on OVCAR-8 ovarian; 92.6 µM in the test on SW-620 colon; 28.5 µM with NCI-H23 lung. Besides, the GI50 in the test with DU-145 prostate is 33.3 µM; in the test with NCI/ADR-RES ovarian, 16.5 µM; in the test with MALME-3M melanoma, 28.7 µM; in the test with T-47D breast, 8.2 µM. Moreover, the TGI in the test with HCT-15 colon, with RPMI-8226 leukemia, with KM12 colon, in the test with OVCAR-8 ovarian, with SW-620 colon and in the test with NCI-H23 lung was > 100 µM throughout. The TGI in the test on DU-145 prostate is > 100 µM; in the test with NCI/ADR-RES ovarian it was 72.5 µM; in the test with MALME-3M melanoma it was > 100 µM; in the test on T-47D breast, 44.9 µM.
For the compound `O=S(=O)(c1cnccc1N1CCN(CCO)CC1)N1CCCC1`, the TGI with HCT-15 colon, in the test with RPMI-8226 leukemia, in the test with KM12 colon, in the test with OVCAR-8 ovarian, with SW-620 colon and in the test with NCI-H23 lung was > 100 µM in each case. Further, the TGI with DU-145 prostate, in the test with NCI/ADR-RES ovarian, in the test on MALME-3M melanoma and with T-47D breast was > 100 µM in each case.
Regarding `O=C1Cc2cc(C(=O)NC3C[C@H]4CC[C@@H](C3)N4S(=O)(=O)CC3CCN(CCCC(F)(F)F)CC3)c(Cl)cc2N1` (stereo partly specified), the GI50 with HCT-15 colon, in the test with RPMI-8226 leukemia, with KM12 colon, in the test on OVCAR-8 ovarian, in the test on SW-620 colon and with NCI-H23 lung was > 100 µM in each case. The GI50 with DU-145 prostate, in the test on NCI/ADR-RES ovarian, with MALME-3M melanoma and with T-47D breast was > 100 µM in each case. For the same compound, the TGI with HCT-15 colon, with RPMI-8226 leukemia, in the test on KM12 colon, with OVCAR-8 ovarian, in the test with SW-620 colon and in the test on NCI-H23 lung was > 100 µM throughout. In addition, the TGI with DU-145 prostate, in the test on NCI/ADR-RES ovarian, in the test with MALME-3M melanoma and in the test on T-47D breast was > 100 µM throughout.
On to `COc1cc2cc(Oc3ccc(NC(=O)Nc4ccc(Cl)c(Cl)c4)cc3)c(C)nc2cc1OC`, for which the GI50 is 3.56 µM with HCT-15 colon; 1.62 µM with RPMI-8226 leukemia; 3.22 µM in the test on KM12 colon; 3.54 µM in the test with OVCAR-8 ovarian; 4.24 µM in the test on SW-620 colon; 3.36 µM in the test with NCI-H23 lung. Further, the GI50 is 4.27 µM in the test on DU-145 prostate, 2.6 µM with NCI/ADR-RES ovarian, 3.02 µM in the test with MALME-3M melanoma and 2.7 µM in the test on T-47D breast. In addition, the TGI in the test on HCT-15 colon was > 100 µM; in the test with RPMI-8226 leukemia, 5.73 µM; with KM12 colon, 13.4 µM; in the test on OVCAR-8 ovarian, 12.9 µM; with SW-620 colon, 15.6 µM; in the test on NCI-H23 lung, 15.9 µM. Besides, the TGI in the test with DU-145 prostate turned out to be 17.1 µM; in the test on NCI/ADR-RES ovarian, 16.9 µM; in the test with MALME-3M melanoma, 7.72 µM; in the test with T-47D breast it was 10.1 µM.
With `CO[C@H]1C[C@@H]2CC[C@@H](C)[C@@](O)(O2)C(=O)C(=O)N2CCCC[C@H]2C(=O)O[C@H]([C@H](C)C[C@@H]2CC[C@@H](OCCO)[C@H](OC)C2)CC(=O)[C@H](C)C=C(C)[C@@H](O)[C@@H](OC)C(=O)[C@H](C)C[C@H](C)/C=C/C=C/C=C1C`, the GI50 in the test on HCT-15 colon is < 0.0115 µM; in the test on RPMI-8226 leukemia, < 0.01 µM; with KM12 colon it was 1.18 µM; in the test with SW-620 colon it was 8.49 µM; in the test on NCI/ADR-RES ovarian, 3.26 µM; in the test with MALME-3M melanoma, < 0.01 µM. Further, the GI50 in the test on T-47D breast is < 0.01 µM. Besides, the TGI with HCT-15 colon was 18.5 µM; in the test with RPMI-8226 leukemia it was 14.1 µM; with KM12 colon it was 21.2 µM; in the test on OVCAR-8 ovarian it was 29.5 µM; in the test with SW-620 colon, 23.9 µM; in the test on NCI-H23 lung it was 22.7 µM. For the same compound, the results for the TGI with DU-145 prostate, in the test with NCI/ADR-RES ovarian and in the test on T-47D breast were 16.5 µM, 31.7 µM and 21.5 µM, respectively.
As for `O=C1NC(=NCCCc2ccccc2)S/C1=C\c1ccc2ncccc2c1`, the GI50 with HCT-15 colon is 2.9 µM; with RPMI-8226 leukemia it was 5.52 µM; in the test on KM12 colon, 8.84 µM; in the test with OVCAR-8 ovarian, 5.94 µM; with SW-620 colon, 6.37 µM; with NCI-H23 lung, 6.06 µM. For the same compound, the GI50 in the test with DU-145 prostate was 5.89 µM; with NCI/ADR-RES ovarian, 6.5 µM; with MALME-3M melanoma it was 7.43 µM; in the test with T-47D breast it was 4.73 µM. For the same compound, the TGI was > 25 µM in the test on HCT-15 colon; 14.6 µM in the test with RPMI-8226 leukemia; > 25 µM in the test on KM12 colon; 16.8 µM with OVCAR-8 ovarian; > 21.5 µM with SW-620 colon; 15.8 µM in the test with NCI-H23 lung. The TGI with DU-145 prostate came out at 18 µM; in the test with NCI/ADR-RES ovarian it was 17.1 µM; with MALME-3M melanoma, 19.3 µM; in the test on T-47D breast, 12.3 µM.

(Values after PubChem BioAssay (NCI).)
